By melting point is commonly meant the temperature of the solid-liquid transition.

This note sets out measurements from US6734184B1, “Arylpiperazines and their use as metalloproteinase inhibiting agents (MMP)” (AstraZeneca AB, priority 1998, dated 2004).

As for `O=CN(O)C(CCc1cccnc1)CS(=O)(=O)N1CCC(Oc2ccc(Cl)cn2)CC1` (stereo not drawn) [Example 14, N-{1-[({4-[(5-Chloropyridin-2-yl)oxy]piperidino}sulfonyl)methyl]-3-pyridin-3-ylpropyl}-N-hydroxyformamide], the melting point fell in the range of 130 to 140 °C.
Next, `O=CN(O)C(CCc1ccccc1)CS(=O)(=O)N1CCN(c2cc(Cl)ncn2)CC1` (stereo not drawn) [N-[1-({[4-(6-chloropyrimidin-4-yl)piperazino]sulphonyl}methyl)-3-phenylpropyl]-N-hydroxyformamide]: 155 to 157 °C.
The value for `O=CN(O)C(COCc1ccccc1)CS(=O)(=O)N1CCN(c2cc(Cl)ncn2)CC1` (stereo not drawn) [N-[2-(benyloxy)-1-({[4(6-chloropyrimidin-4-yl)piperazino]sulphonyl}methyl)ethyl]-N-hydroxyformamide] was 118 to 120 °C.
